In data set [1] the test system is MCF7 and MDA-MB-468 xenografts. Briefly: NIRF imaging of Cy5p53Tet in mice bearing bilateral MCF7/MDA-MB-468 xenografts (in vivo and ex vivo epifluorescence). As to conditions: in vivo, after intravenous administration, 10 nmol.
Protocol: At 40, 80, and 180 min after injection, mice were sacrificed, and the xenografts were resected and imaged ex vivo (FIG. 2C).
NIRF Imaging of Cy5p53Tet in Mice Bearing Bilateral MCF7/MDA-MB-468 Xenografts. Female athymic nude mice (6-10 weeks old, 01B74-Athymic NCr-nu/nu;) were obtained from Charles River Laboratories. Animals were supplemented with 17β-estradiol with a dose of 0.72 mg/pellet (60-day release) into the neck 7 days before MCF7 cells were subcutaneous implanted. 5×10^6 cells/mouse MCF7 cells were suspended in 100 μL of 1:1 media/matrigel basement membrane matrix (Corning) and injected subcutaneously on the left flank of each mouse (n≥3/group). After 4 weeks, 5×10^6 cells/mouse MDA-MB-468 cells were subcutaneously implanted in the right flank of the mouse in 100 μL of 1:1 media/matrigel basement membrane matrix. Imaging experiments were performed when the tumors reached a volume of ˜50-250 mm^3 (after approximately 3 weeks). Cy5p53Tet (10 nmol) was injected into the tail vein of each mouse. Prior to in vivo imaging, the mice were anesthetized with 1.5-2.0% isoflurane (Baxter Healthcare). Images were collected using an IVIS Spectrum (Perkin Elmer) 12 min, 30 min, and 3 h following the administration of Cy5p53Tet. […] Fluorescence imaging was carried out with excitation and emission wavelengths of 640 and 680 nm, respectively. […]
Data set [2] concerns MDA-MB-468 cells compared to MCF7 cells. Kind of data set: Cy5p53Tet cellular uptake by live cell imaging (confocal, Nikon Element quantification). The data set is classed as cell-based, Human. As to conditions: 500 nM, 2 h incubation; Nikon Element analysis. How it is done:
Hoechst staining (blue) was used to stain the nuclei. Two independent experiments with biological replicates were performed.
FIG. 1D is a graph showing quantification of Cy5p53Tet uptake in MCF7 and MDA-MB-468 cells via Nikon Element analysis. At least 200 cells per sample were measured by fluorescence microscopy.
In vitro uptake, specificity, and toxicity assays were performed to gauge the potential of mtp53ODPs as imaging agents. Live cell imaging was performed to compare the ability of Cy5p53Tet to stain ER+MCF7 breast cancer cells that express wtp53 and MDA-MB-468 TNBC cells which express stable missense mtp53 R273H. Cy5p53Tet was anticipated to detect both wtp53 and mtp53, but because of the higher stability of mtp53, MDA-MB-468 cells were predicted to have a higher signal. The intensity of the Cy5p53Tet signal was clearly higher in the MDA-MB-468 cells compared to the MCF7 cells (FIG. 1B), a difference that correlated to the level of p53 expression as determined by Western blot (FIG. 1C). […] However, after a 2 h incubation with Cy5p53Tet, the colocalization was clearly evident with the Hoechst-stained DNA (Supplemental Illustration S3 in U.S. Provisional application 63/186,409).
Cy5p53Tet Cellular Uptake by Live Cell Imaging. Cells were seeded at 2×10^5 per well in a 12-well glass bottom plate 1 day before imaging (MatTek). […]

The next data set relates to WHIM6 and WHIM25 tumors. Briefly: SDS-PAGE Cy5 signal of protein extracts from WHIM6 and WHIM25 PDX tumors. The data set is classed as in vivo, NSG mice. To be noted: SDS-PAGE of tumor extracts.

Protocol for WHIM6 and WHIM25 tumors: 25 μg of proteins were run on 12% polyacrylamide gel and the Cy5p53Tet peptide accumulated in tumors was scanned at Cy5 channel and quantified. The intensity of Cy5p53Tet peptide was analyzed by ImageJ. p53 and MDM2 protein levels from the WHIM6 and WHIM25 tumors post-injection with Cy5p53Tet peptide at 1 hr, 2 hr and 3 hr were determined by Western blot analysis. 25 ug of proteins were load on 12% SDS-PAGE gel.
First, WHIM6/WHIM25 bilateral PDX tumor-bearing NSG mice were tail vein injected with 10 nmol of Cy5p53Tet peptide to study its delivery efficacy (FIG. 5A). Then, the WHIM6 and WHIM25 tumors were removed at 1, 2, and 3 hr post-injection. Uptake of the Cy5p53Tet peptide in WHIM6 and WHIM25 tumors was assessed on an in vivo epifluorecent imaging system (IVIS). […] The Cy5p53Tet peptide signal was investigated in PDX tumor tissue by extracting proteins from the WHIM6 and WHIM25 tumors post-injection with the Cy5p53Tet peptide at 1 hr, 2 hr, and 3 hr, and the Cy5p53Tet peptide effects were characterized in PDX models (FIG. 5B). Samples were run on 12% polyacrylamide gel and the Cy5p53Tet peptide accumulated in tumors was scanned at Cy5 channel and quantified. […] In addition, p53 and MDM2 protein levels were checked upon Cy5p53Tet peptide treatment in PDX tumors.

As to “H-CysCy5-RKKRRQRRGEYFTLQIRGRERFEMFRELNEALELK-OH (N-terminal Cy5; Synthetic peptide based on p53 protein) [Cy5p53Tet]”, in data set [1], the “NIRF signal in MCF7 tumors” value was “no signal” and the “NIRF signal in MDA-MB-468 tumors” value is “clearly observed”. For the same substance, in data set [2], the “uptake of the mtp53ODP in MDA-MB-468 cells compared to MCF7 cells” value is reported as “twofold higher”. The “retention of Cy5p53Tet in mtp53 R273H WHIM25 versus wtp53 WHIM6” value in the data set with WHIM6 and WHIM25 tumors is recorded as “longer”.

(Values after patent US20210353784A1, “DETECTING AND TREATING CANCERS USING CELL PENETRANT MTP53-OLIGOMERIZATION-DOMAIN PEPTIDE” (priority 2020, published 2021).)
